Measurements as given in patent US12588678B2, “Oxazoline compound, synthesis method therefor and application thereof” (NANKAI UNIVERSITY, priority 2019, dated 2026).

Tests used:
[1] = tested on: Tetranychus cinnabarinus mite eggs; assay: Activity against mite eggs, dipping method on bean seedling leaves; assay type: in vivo; conditions: Tetranychus cinnabarinus, 96 h, checked after 4 days; for mortality at 10 µg/mL: read-out: mortality of mite eggs (%), 10 mg/L; for mortality at 100 µg/mL: read-out: mortality of mite eggs (%), 100 mg/L; for mortality at 200 µg/mL: read-out: mortality of mite eggs (%), 200 mg/L; for mortality at 1 µg/mL: read-out: mortality of mite eggs (%), 1 mg/L
From the text: (§1) The assay examples are used to illustrate the acaricidal activity against Tetranychus cinnabarinus (mortality of mite larvae and mortality of mite eggs) of the compounds having the structure represented by formula (I), and the results are shown in tables 1 to 9, where mortality of mite larvae % =(number of dead mite larvae applied/total number of mite larvae applied)×100, and mortality of mite eggs %= (number of dead mite eggs applied/total number of mite eggs applied)×100.
Tetranychus cinnabarinus bred indoors on bean seedlings was used as a test subject by the dipping method. Move female adult mites onto the newly grown complete bean seedling leaves with two leaves, cut off the bean seedlings, place the bean seedlings in a greenhouse with illumination at 25° C. for laying eggs for 24 hours, then remove adult mites and keep mite eggs. After continuously culturing in the greenhouse for one day, completely soak the bean seedling leaves containing the acarid eggs into the prepared sample solution to be tested for 5-6 seconds by using tweezers, slightly throw off residual liquid, put the bean seedling leaves back to the culture cup, continuously culture for 4 days and then check the result. One of the plants was immersed in a solution containing no sample to be tested and the remaining additives were identical to the sample solution as a blank control. Each compound was replicated three times.

[2] = tested on: Tetranychus cinnabarinus mite larvae; assay: Larvicidal activity test, dipping method on bean seedling leaves; assay type: in vivo; conditions: for mortality at 100 µg/mL: read-out: mortality of mite larvae (%), 100 mg/L; for mortality at 200 µg/mL: read-out: mortality of mite larvae (%), 200 mg/L; for mortality at 1 µg/mL: read-out: mortality of mite larvae (%), 1 mg/L; for mortality at 10 µg/mL: read-out: mortality of mite larvae (%), 10 mg/L; for mortality at 0.1 µg/mL: read-out: mortality of mite larvae (%), 0.1 mg/L; for acaricidal activity compared with etoxazole: Tetranychus cinnabarinus eggs and larvae, etoxazole as reference
From the text: as §1
Tetranychus cinnabarinus bred indoors on bean seedlings was used as a test subject by the dipping method. Move adult mites onto the newly grown complete bean seedling leaves with two leaves, cut off the bean seedlings, place the bean seedlings in a greenhouse with illumination at 25° C. for laying eggs for 24 hours, then remove adult mites and keep mite eggs. And continuously culture in the greenhouse for 5 days until mite eggs hatch into mite larvae (ensuring that the number of the mites on each tested leaf is not less than 60).
Completely immerse the bean seedling leaves containing the mite larvae into the sample solution to be detected with Tween at the prepared concentration for 5-6 seconds by using tweezers, slightly throw off residual liquid, put the bean seedling leaves back to the culture cup, continuously culture for 4 days and check the result. One of the plants was immersed in a solution containing no sample to be tested and the remaining additives were identical to the sample solution as a blank control. Each compound was replicated three times.

[3] = Tetranychus cinnabarinus, 96 h, checked after 4 days

Structure (SMILES)	mortality at 10 µg/mL [1]	mortality at 100 µg/mL [1]	mortality at 200 µg/mL [1]	mortality at 100 µg/mL [2, 3]	mortality at 200 µg/mL [2, 3]	mortality at 1 µg/mL [1]	mortality at 1 µg/mL [2, 3]	mortality at 10 µg/mL [2, 3]	mortality at 0.1 µg/mL [2, 3]	mortality at 0.1 µg/mL ([1]; read-out: mortality of mite eggs (%), 0.1 mg/L)	mortality at 0.5 µg/mL ([1]; read-out: mortality of mite eggs (%), 0.5 mg/L)	acaricidal activity compared with etoxazole [2]	mortality at 0.05 µg/mL ([2]; Tetranychus cinnabarinus, 96 h, read-out: mortality of mite larvae (%), 0.05 mg/L, checked after 4 days)	mortality at 0.5 µg/mL ([2]; Tetranychus cinnabarinus, 96 h, read-out: mortality of mite larvae (%), 0.5 mg/L, checked after 4 days)
Fc1cccc(F)c1C1=NC(c2ccc(COc3ncccn3)cc2)CO1 (stereo not shown) [Compound R2-17]	70%	100%	100%	60%	90%									
CCS(=O)(=O)Oc1ccc(C2COC(c3c(F)cccc3F)=N2)cc1 (stereo not shown) [Compound R3-2]	80%	95%	100%	100%	100%	50%	60%	90%						
Fc1cccc(F)c1C1=NC(c2ccc(COc3ccc(Br)cc3)cc2)CO1 (stereo not shown) [Compound R2-20]	90%	100%	100%	92%	100%	60%	40%	80%						
CS(=O)(=O)Oc1ccc(C2COC(c3c(F)cccc3F)=N2)cc1 (stereo not shown) [Compound R3-1]	90%	95%	100%	100%	100%	70%	80%	100%	50%					
O=S(=O)(Oc1ccc(C2COC(c3c(F)cccc3F)=N2)cc1)c1ccccc1F (stereo not shown) [Compound R3-11]	80%	95%	100%	100%	100%	50%	80%	90%	50%					
O=S(=O)(Oc1ccc(C2COC(c3c(F)cccc3F)=N2)cc1)c1ccc(Br)cc1 (stereo not shown) [Compound R3-9]	90%	100%	100%	100%	100%	75%	100%	100%	70%	30%	60%	equivalent or better acaricidal activity compared with etoxazole	40%	90%
Fc1cccc(F)c1C1=NC(c2ccc(CN3CCc4ccccc43)cc2)CO1 (stereo not shown) [Compound R1-14]	70%	95%	100%	95%	100%	40%	30%	70%						
Fc1cccc(F)c1C1=NC(c2ccc(CN3CCCCCCC3)cc2)CO1 (stereo not shown) [Compound R1-3]	70%	90%	100%	95%	100%	55%	55%	70%						
Fc1cccc(F)c1C1=NC(c2ccc(Cn3ccc4cc(Cl)ccc43)cc2)CO1 (stereo not shown) [Compound R1-23]	75%	100%	100%	100%	100%	60%	50%	80%						
C=CS(=O)(=O)Oc1ccc(C2COC(c3c(F)cccc3F)=N2)cc1 (stereo not shown) [Compound R3-6]	60%	80%	100%	80%	100%		60%	80%						
Cc1cn(Cc2ccc(C3COC(c4ccccc4F)=N3)cc2)c2ccccc12 (stereo not shown) [Compound R1-19]												higher acaricidal activity than etoxazole		
